Test results: PMC8830500, “Small Molecule Palmatine Targeting Musashi-2 in Colorectal Cancer” (Frontiers in Pharmacology, 2022)

Columns and labels:
Type in all cases: binding
Musashi-2 (MSI2) = Musashi-2 (MSI2) (Homo sapiens, UniProt Q96DH6); test: MST with GFP-tagged protein in HEK293FT lysate; CETSA in HCT116 cells
LIN28A = target: T1, LIN28A (Homo sapiens, UniProt Q9H9Z2); test: MST with GFP-tagged protein in cell lysate
T1 construct: GFP-tagged, HEK293FT lysate
T1 sequence (Q9H9Z2 2-209): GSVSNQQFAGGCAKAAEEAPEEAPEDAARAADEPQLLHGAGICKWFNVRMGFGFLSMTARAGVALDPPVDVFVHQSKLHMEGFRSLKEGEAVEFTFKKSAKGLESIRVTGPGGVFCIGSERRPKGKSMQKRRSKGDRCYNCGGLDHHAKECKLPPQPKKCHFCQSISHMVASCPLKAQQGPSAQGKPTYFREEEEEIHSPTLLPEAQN

HUR = target: T2, HUR (Homo sapiens, UniProt Q15717); test: MST with GFP-tagged protein in cell lysate
T2 construct: gene ELAVL1; GFP-tagged, HEK293FT lysate
T2 sequence (Q15717 2-326): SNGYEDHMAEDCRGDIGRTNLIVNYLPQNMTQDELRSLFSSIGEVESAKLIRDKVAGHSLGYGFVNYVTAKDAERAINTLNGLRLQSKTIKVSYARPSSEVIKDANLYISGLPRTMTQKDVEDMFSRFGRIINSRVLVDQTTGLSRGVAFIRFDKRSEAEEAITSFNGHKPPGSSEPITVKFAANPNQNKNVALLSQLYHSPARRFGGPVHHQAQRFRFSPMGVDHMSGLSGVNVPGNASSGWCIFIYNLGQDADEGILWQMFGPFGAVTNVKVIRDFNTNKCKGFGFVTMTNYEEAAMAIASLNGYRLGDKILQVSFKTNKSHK

Musashi-2 (MSI2), sequence (Q96DH6 whole entry): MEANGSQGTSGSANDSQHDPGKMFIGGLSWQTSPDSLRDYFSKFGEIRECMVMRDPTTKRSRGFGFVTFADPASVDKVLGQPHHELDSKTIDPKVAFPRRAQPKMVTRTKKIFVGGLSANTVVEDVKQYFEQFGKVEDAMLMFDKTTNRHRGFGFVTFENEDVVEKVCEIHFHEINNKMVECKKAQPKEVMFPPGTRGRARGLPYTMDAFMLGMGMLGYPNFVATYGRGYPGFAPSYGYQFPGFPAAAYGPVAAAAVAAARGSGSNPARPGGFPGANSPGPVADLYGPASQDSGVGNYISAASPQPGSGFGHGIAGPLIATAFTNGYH

For `COc1cc2c(cc1OC)-c1cc3ccc(OC)c(OC)c3c[n+]1CC2` [palmatine], the Kd (Musashi-2 (MSI2)) was 17 µM, the Kd (LIN28A) was 49.6 µM and the Kd (HUR) was 33.5 µM.
